# Measurements from patent US20240140970A1, “A […], AND PREPARATION METHOD AND USE THEREOF” (ASCENTAWITS PHARMACEUTICALS, LTD., priority 2021, published 2024).
# Values joined by “and” are separate entries in the source; they are usually repeats but may differ in a detail not shown here. Equal entries are not always repeated.
# Experiment: Freeze/thaw stability of AST-2660 in human plasma (LC-MS/MS)
# Assay type: in vitro ADME
# Method: The detection method established in example 4 was used to detect the content of AST-2660 in the human plasma to be tested.
# Matrix: the mixed normal human plasma containing anticoagulant (K2 EDTA) • a: the internal standard working solution: AST-2660-D8 was taken, added with methanol, and diluted to prepare a solution containing about 100 ng per 1 ml. • b: the solution to be tested (no internal standard compound was added to the solution to be tested at this time): it was obtained by taking a blood sample to be tested. • c: the standard working solution (no internal standard compound was added to the standard working solution at this time): an appropriate amount of AST-2660 was taken and accurately weighed, dissolved with methanol, and diluted to prepare a solution containing about 1.0 mg per 1 ml, which was used as the standard working stock solution. An appropriate amount of the standard working stock solution was taken, added with the matrix and diluted to prepare standard working solutions with different concentrations containing about 200 ng, 160 ng, 100 ng, 50 ng, 10 ng, 2.0 ng, 1.0 ng and 0.5 ng per 1 ml, respectively. (The solution was stored at −70° C.) • d: the quality control sample solution: an appropriate amount of AST-2660 was taken and accurately weighed, dissolved with methanol, and diluted to prepare a solution containing about 10 μg per 1 ml, which was used as the quality control working stock solution. An appropriate amount of the quality control working stock solution was taken, added with matrix to prepare quality control working solutions with different concentrations containing about 150 ng, 60 ng, 15 ng, 1.5 ng and 0.5 ng per 1 ml. (The solution was stored at −70° C.)
# The solution to be tested, the standard working solution and the quality control sample solution were thawed at room temperature and mixed uniformly. 100 μl of the above solution was respectively taken, added with 20 μl of the internal standard and 500 μl of methanol, and vortexed for 3 minutes to mix uniformly, and then centrifuged for 10 minutes at 2143 rcf. 450 μl of the supernatant was taken and dried, and 150 μl of methanol was added for redissolution, and sonicated. Then the plates were centrifuged for 3 minutes at 4° C. It was obtained by taking […] of supernatant.
# Liquid phase conditions: A SHARC 1, 3 μm, 2.1*50 mm or chromatograph column with equivalent performance was used; the mobile phase was a methanol solution comprising low content of ammonium acetate; the mobile phase B was acetonitrile; the gradient elution was performed according to the following table, column temperature: 20° C.; injection volume: 5 μl.
# Mass spectrometric conditions: electrospray ion source with negative ion scanning mode; spray potential: −4500 V; ion source temperature: 500° C.; collision energy (CE): −22 eV; declustering potential (DP): −55V; entrance potential (EP): −10V; collision chamber exit potential (CXP): −16V; dwell time: 100 ms; high purity nitrogen was used for all gases; AST-2660 ions pairs: m/z 147.0→m/z 62.9; the internal standard AST-2660-D8 ion pairs: m/z 155.0→m/z 62.9.
# The AST-2660 standard working solution, blank sample, zero concentration sample, sample solution to be tested and quality control sample solution with different concentrations after extraction were respectively taken and injected into LC-MS/MS for detection.
# Calculation results: the relationship function y=f (x) of the ratio of the peak area of the AST-2660 to that of the internal standard was obtained from AST-2660 standard working solutions with different concentrations. The ratio of the peak area of the AST-2660 to that of the internal standard was determined from the solution to be tested after extraction, and substituted into the relationship function y=f (x) to calculate the concentration of the metabolite II in the solution to be tested.
# [1] = DilQC (10-fold dilution) nominal 1500 ng/ml, 5 freeze/thaw cycles at −20° C.
# [2] = DilQC (10-fold dilution) nominal 1500 ng/ml, 5 freeze/thaw cycles at −70° C.
# [3] = QC1 nominal 1.50 ng/ml, 5 freeze/thaw cycles at −20° C.
# [4] = QC1 nominal 1.50 ng/ml, 5 freeze/thaw cycles at −70° C.
# [5] = QC4 nominal 150 ng/ml, 5 freeze/thaw cycles at −20° C.
# [6] = QC4 nominal 150 ng/ml, 5 freeze/thaw cycles at −70° C.
smiles,measurement,setting,value
O=P([O-])(N1CC1)N1CC1.[Na+] [AST-2660],"AST-2660 concentration, Mean value",[1],1288 ng/mL
same,"AST-2660 concentration, single replicates",[1],1310 ng/ml (2×) and 1250 ng/ml and 1280 ng/ml
same,RE (%) vs nominal,[1],−14.2%
same,"AST-2660 concentration, Mean value",[2],1540 ng/mL
same,"AST-2660 concentration, single replicates",[2],1650 ng/ml and 1500 ng/ml (2×) and 1510 ng/ml
same,RE (%) vs nominal,[2],2.7%
same,"AST-2660 concentration, Mean value",[3],1.13 ng/mL
same,"AST-2660 concentration, single replicates",[3],1.13 ng/mL and 1.18 ng/mL and 1.14 ng/mL and 1.06 ng/mL
same,RE (%) vs nominal,[3],−24.8%
same,"AST-2660 concentration, Mean value",[4],1.60 ng/mL
same,"AST-2660 concentration, single replicates",[4],1.69 ng/mL and 1.72 ng/mL and 1.47 ng/mL and 1.51 ng/mL
same,RE (%) vs nominal,[4],6.5%
same,"AST-2660 concentration, Mean value",[5],140 ng/mL
same,"AST-2660 concentration, single replicates",[5],136 ng/mL and 138 ng/mL and 152 ng/mL and 132 ng/mL
same,RE (%) vs nominal,[5],−7.0%
same,"AST-2660 concentration, Mean value",[6],149 ng/mL
same,"AST-2660 concentration, single replicates",[6],145 ng/ml and 148 ng/ml (2×) and 154 ng/ml
same,RE (%) vs nominal,[6],−0.8%
same,change of AST-2660 content (in words),freeze-thaw process from −20° C. to room temperature,reduced significantly
same,change of AST-2660 content (in words),freeze-thaw process from −70° C. to room temperature,almost no reduction
